In ChEMBL document CHEMBL6134815, “Research progress of LpxC inhibitor on Gram-negative bacteria” (Eur J Med Chem, 2025):
Converted amounts (≈) assume the structure as drawn.

What was measured:
Salmonella typhimurium = assay: Antimicrobial activity against Salmonella enterica subsp. enterica serovar Typhimurium ATCC 14028 assessed as inhibition of bacterial growth measured for 24 hrs by standard broth microdilution method; type: functional
Escherichia coli [1] = assay: Antibacterial activity against Escherichia coli ATCC 25922 incubated for 24 hrs by CLSI based micro-dilution method; type: functional
Pseudomonas aeruginosa [2] = assay: Antibacterial activity against Pseudomonas aeruginosa ATCC 27853 assessed as reduction in bacterial growth incubated for 18 hrs by broth micro-dilution method; type: functional
[3] = target: T1, UDP-3-O-acyl-N-acetylglucosamine deacetylase (Escherichia coli K-12, UniProt P0A725); assay: Inhibition of Escherichia coli LpxC
T1 sequence (P0A725 whole entry): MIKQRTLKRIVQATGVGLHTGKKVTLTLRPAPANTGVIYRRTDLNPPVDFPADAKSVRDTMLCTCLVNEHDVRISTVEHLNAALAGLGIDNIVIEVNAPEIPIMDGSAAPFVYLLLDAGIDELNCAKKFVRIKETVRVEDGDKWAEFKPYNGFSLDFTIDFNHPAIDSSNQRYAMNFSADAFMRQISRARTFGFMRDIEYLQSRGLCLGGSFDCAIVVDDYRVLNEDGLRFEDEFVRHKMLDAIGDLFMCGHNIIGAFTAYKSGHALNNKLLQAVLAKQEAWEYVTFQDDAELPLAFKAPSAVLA

Serratia marcescens = assay: Antibacterial activity against Serratia marcescens assessed as inhibition of bacterial growth by Muller-Hinton broth based serial dilution method; type: functional
Morganella morganii = assay: Antimicrobial activity against Morganella morganii ATCC 25830 assessed as inhibition of microbial growth incubated for 18 hrs by micro-broth dilution method; type: functional
Haemophilus influenzae = assay: Antibacterial activity against Haemophilus influenzae ATCC 49247 assessed as inhibition of microbial growth incubated for 18 hrs by micro-broth dilution method; type: functional
[4] = target: T1, UDP-3-O-acyl-N-acetylglucosamine deacetylase; assay: Binding affinity to Escherichia coli LpxC assessed as inhibition constant
Escherichia coli [5] = assay: Antibacterial activity against Escherichia coli ATCC 25922 assessed as reduction in bacterial growth incubated for 18 hrs by broth micro-dilution method; type: functional
Escherichia coli [6] = assay: Antibacterial activity against Escherichia coli ATCC 25922 assessed as reduction in bacterial growth by CLSI protocol based Mueller Hinton broth assay; type: functional
Pseudomonas aeruginosa [7] = assay: Antibacterial activity against Pseudomonas aeruginosa ATCC 27853 assessed as reduction in bacterial growth by CLSI protocol based Mueller Hinton broth assay; type: functional
Klebsiella pneumoniae [8] = assay: Antibacterial activity against Klebsiella pneumoniae A651 assessed as reduction in bacterial growth by CLSI protocol based Mueller Hinton broth assay; type: functional
Escherichia coli [9] = assay: Antibacterial activity against Escherichia coli CMCC 44568 assessed as reduction in bacterial growth incubated for 22 hrs byMueller-Hinton Broth assay; type: functional
Pseudomonas aeruginosa [10] = assay: Antibacterial activity against Pseudomonas aeruginosa CMCC 10104 assessed as reduction in bacterial growth incubated for 22 hrs byMueller-Hinton Broth assay; type: functional
[11] = Inhibition of Aquifex aeolicus LpxC
Pseudomonas aeruginosa [12] = assay: Antibacterial activity against Pseudomonas aeruginosa PAO1 assessed as reduction in bacterial growth incubated for 24 hrs By CLSI based micro-dilution method; type: functional
Escherichia coli [13] = assay: Antibacterial activity against Escherichia coli ATCC 25922; type: functional
Klebsiella pneumoniae [14] = assay: Antibacterial activity against Klebsiella pneumoniae ATCC 700603; type: functional
Pseudomonas aeruginosa [15] = assay: Antibacterial activity against Pseudomonas aeruginosa PAO1; type: functional
[16] = target: T2, UDP-3-O-acyl-N-acetylglucosamine deacetylase (Pseudomonas aeruginosa (strain ATCC 15692 / PAO1 / 1C / PRS 101 / LMG12228), UniProt P47205); assay: Binding affinity to Pseudomonas aeruginosa LpxC assessed as inhibition constant
T2 sequence (P47205 whole entry): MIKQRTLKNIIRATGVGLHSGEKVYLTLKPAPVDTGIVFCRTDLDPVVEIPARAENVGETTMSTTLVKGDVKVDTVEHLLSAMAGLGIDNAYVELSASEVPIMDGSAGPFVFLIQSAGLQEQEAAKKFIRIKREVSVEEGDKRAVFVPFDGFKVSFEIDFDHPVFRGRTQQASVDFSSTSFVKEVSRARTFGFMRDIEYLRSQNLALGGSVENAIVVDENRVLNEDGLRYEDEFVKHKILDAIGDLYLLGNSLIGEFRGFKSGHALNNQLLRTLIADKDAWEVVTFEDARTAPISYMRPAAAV

Escherichia coli [17] = assay: Antimicrobial activity against Escherichia coli ATCC 25922 assessed as reduction in bacterial growth incubated for 18 hrs by micro-dilution method; type: functional
Klebsiella pneumoniae [18] = assay: Antibacterial activity against Klebsiella pneumoniae ATCC 700603 assessed as inhibition of bacterial growth incubated for 18 hrs by broth micro-dilution method; type: functional
[19] = Toxicity in CD-1 mouse assessed as effective dose; settings: in vivo
[20] = target: T2, UDP-3-O-acyl-N-acetylglucosamine deacetylase; assay: Inhibition of Pseudomonas aeruginosa LpxC
Escherichia coli [21] = assay: Anti-microbial activity against Escherichia coli ATCC 25922 assessed as reduction in bacterial growth incubated for 24 hrs By CLSI based micro-dilution method; type: functional
Escherichia coli [22] = assay: Antibacterial activity against Escherichia coli assessed as bacterial growth inhibition; type: functional
Pseudomonas aeruginosa [23] = assay: Antibacterial activity against Pseudomonas aeruginosa assessed as bacterial growth inhibition; type: functional
Klebsiella pneumoniae [24] = assay: Antibacterial activity against Klebsiella pneumoniae ATCC 43816 assessed as reduction in microbial growth incubated for 16 to 18 hrs by CLSI protocol based Muller Hinton broth assay; type: functional; settings: time 16-18 hrs
Pseudomonas aeruginosa [25] = assay: Antibacterial activity against Pseudomonas aeruginosa assessed as reduction in bacterial growth; type: functional
Escherichia coli [26] = assay: Antibacterial activity against Escherichia coli ATCC 25922 assessed as reduction in bacterial growth; type: functional
Yersinia enterocolitica = assay: Antibacterial activity against Yersinia enterocolitica assessed as inhibition of bacterial growth incubated for 16 to 20 hrs by CLSI protocol based Muller Hinton broth assay; type: functional; settings: time 16-20 hrs
Pseudomonas aeruginosa [27] = assay: Antibacterial activity against Pseudomonas aeruginosa ATCC 27853 assessed as reduction in bacterial growth by CLSI protocol based Muller Hinton broth assay; type: functional

For `C[C@@H](O)[C@H](NC(=O)c1ccc(C#CC#Cc2ccccc2)cc1)C(=O)NO`, which MIC (Salmonella typhimurium) is on record?
The MIC was 0.024 µg/mL (≈ 0.0662 µM).

And the MIC (Escherichia coli [1])?
The MIC was 0.05 µg/mL (≈ 0.138 µM).

What about the MIC (Pseudomonas aeruginosa [2]) of the same compound?
Its MIC is 0.74 µg/mL (≈ 2.04 µM).

What does the source list for `O=C(NO)[C@@H](Cc1ccc2ccccc2c1)NS(=O)(=O)c1ccc2ccccc2c1`?
IC50 [3]: 160 nM; MIC (Serratia marcescens): 1 µg/mL (≈ 2.38 µM); MIC (Morganella morganii): 1 µg/mL; MIC (Haemophilus influenzae): 1 µg/mL

With `O=C(NO)[C@H]1O[C@@H](c2ccc(C#CC#Cc3ccccc3)cc2)[C@@H](O)[C@H]1O` as the compound, how does the Ki [4] read?
The Ki was 4400 nM.

Which MIC (Escherichia coli [5]) does the source give for `CCCc1cc(C2=NC(C(=O)NO)CO2)ccc1OC` (stereo not drawn) here?
The MIC was 1 µg/mL (≈ 3.59 µM).

Which MIC (Escherichia coli [6]) does the source give for `C[C@@](CCN1Cc2cc(C#Cc3ccc([C@H]4C[C@@H]4CO)cc3)cn2C1=O)(C(=O)NO)S(C)(=O)=O` here?
The MIC was 0.031 µg/mL (≈ 0.0638 µM).

What about the MIC (Pseudomonas aeruginosa [7]) of the same compound?
The MIC was 0.5 µg/mL (≈ 1.03 µM).

What about the MIC (Klebsiella pneumoniae [8]) of the same compound?
Its MIC is 0.125 µg/mL (≈ 0.257 µM).

With `N=C(N)N/N=C/c1ccc(C#CC#Cc2ccccc2Cl)cc1` as the compound, how does the MIC (Escherichia coli [9]) read?
The MIC was 8 µg/mL (≈ 24.9 µM).

And the MIC (Pseudomonas aeruginosa [10])?
Its MIC is 4 µg/mL (≈ 12.5 µM).

With `CCCCCC(=O)O[C@@H]1[C@@H](CP(C)(=O)O)CO[C@H](CO)[C@H]1O` as the compound, how does the IC50 [3] read?
Its IC50 is 115000 nM.

And the IC50 [11]?
The IC50 was 192000 nM.

For `CC(O)C#CC#Cc1ccc(C2=NO[C@@H](C[C@](C)(C(=O)NO)S(C)(=O)=O)C2)cc1` (stereo partly drawn), which MIC (Pseudomonas aeruginosa [12]) is on record?
The MIC was 0.06 µg/mL (≈ 0.143 µM).

With `CNC(=O)c1ccc(-c2ccc(NCc3oc(S(C)(=O)=O)cc(=O)c3O)cc2)cc1` as the compound, how does the IC50 [3] read?
The IC50 was 100 nM.

What does the source list for `COC[C@@H]1C[C@H]1C#CC#Cc1ccc(C(=O)N[C@H](C(=O)NO)C(C)(C)N)cc1`?
MIC (Escherichia coli [13]): 0.12 µg/mL (≈ 0.313 µM); MIC (Klebsiella pneumoniae [14]): 0.5 µg/mL (≈ 1.3 µM); MIC (Pseudomonas aeruginosa [15]): 0.5 µg/mL (≈ 1.3 µM)

With `C[C@@](O)(C(F)F)[C@H](NC(=O)c1ccc(C#CC#CC2CC2)cc1)C(=O)NO` as the compound, how does the Ki [16] read?
The Ki was 0.0089 nM.

What about the MIC90 (Escherichia coli [17]) of the same compound?
Its MIC90 is 0.5 µg/mL (≈ 1.33 µM).

And the MIC90 (Klebsiella pneumoniae [18])?
The MIC90 was 0.125 µg/mL (≈ 0.332 µM).

And the ED50 [19]?
The ED50 was 7.2 mg/kg/day.

With `O=C(CO/N=C/c1ccc(O)c(O)c1O)NC[C@H]1O[C@@H](n2ccc(=O)[nH]c2=O)[C@@H](O)[C@H]1O` as the compound, how does the IC50 [3] read?
The IC50 was 27000 nM.

With `O=C(NO)C1(NCc2ccc(-c3ccc(Cl)cc3F)c(F)c2)CCS(=O)(=O)CC1` as the compound, how does the IC50 [20] read?
Its IC50 is 0.2 nM.

What about the MIC (Pseudomonas aeruginosa [12]) of the same compound?
The MIC was 0.25 µg/mL (≈ 0.562 µM).

Which results are given for `O=C(NO)[C@@H](Cc1ccc2ccccc2c1)NS(=O)(=O)c1ccc2cc(Br)ccc2c1`?
IC50 [3]: 400 nM; MIC (Serratia marcescens): 1 µg/mL (≈ 2 µM); MIC (Morganella morganii): 1 µg/mL; MIC (Haemophilus influenzae): 1 µg/mL

For `O=C(NO)[C@H]1O[C@@H](c2ccc(C#Cc3ccc(CN4CCOCC4)cc3)cc2)C[C@H]1O`, which Ki [4] is on record?
Its Ki is 3500 nM.

What about the MIC (Escherichia coli [21]) of the same compound?
Its MIC is 2 µg/mL (≈ 4.73 µM).

With `CC(O)C(CP(=O)(O)O)NC(=O)c1ccc(C#Cc2ccc(CN3CCOCC3)cc2)cc1` (stereo not drawn) as the compound, how does the MIC (Escherichia coli [22]) read?
The MIC was 0.28 µg/mL (≈ 0.593 µM).

What about the MIC (Pseudomonas aeruginosa [23]) of the same compound?
Its MIC is 2.06 µg/mL (≈ 4.36 µM).

Which MIC (Escherichia coli [21]) does the source give for `O=C(NO)[C@@H](OCc1ccc(C#Cc2ccc(CN3CCOCC3)cc2)cc1)[C@@H](O)COCc1ccccc1` here?
Its MIC is 0.125 µg/mL (≈ 0.236 µM).

Which results are given for `N=C(N)N/N=C/c1ccc(C#CC#Cc2ccc(Cl)cc2)cc1`?
MIC (Escherichia coli [9]): 2 µg/mL (≈ 6.23 µM); MIC (Pseudomonas aeruginosa [10]): 1 µg/mL (≈ 3.12 µM)

For `C[C@]1(CO)C[C@@H]1C#CC#Cc1ccc2c(=O)n(CC[C@](C)(C(=O)NO)S(C)(=O)=O)cnc2c1`, which MIC (Escherichia coli [6]) is on record?
The MIC was 0.063 µg/mL (≈ 0.134 µM).

And the MIC (Pseudomonas aeruginosa [7])?
The MIC was 1 µg/mL (≈ 2.12 µM).

What about the MIC (Klebsiella pneumoniae [8]) of the same compound?
Its MIC is 0.25 µg/mL (≈ 0.53 µM).

For `CS(=O)(=O)c1cc(=O)c(O)c(CNc2ccc(-c3ccc(N4CCOCC4)cc3)cc2)o1`, which IC50 [3] is on record?
Its IC50 is 100 nM.

For `CC(C)(N)[C@H](NC(=O)c1ccc(C#CC#C[C@@H]2C[C@H]2CO)cc1)C(=O)NO` [ACHN-975], which MIC (Klebsiella pneumoniae [24]) is on record?
The MIC was 0.5 µg/mL.

And the MIC (Pseudomonas aeruginosa [25])?
The MIC was no more than 1 µg/mL.

What about the MIC (Escherichia coli [26]) of the same compound?
Its MIC is 0.125 µg/mL (≈ 0.338 µM).

What about the MIC (Yersinia enterocolitica) of the same compound?
Its MIC is 2 µg/mL (≈ 5.41 µM).

What about the MIC (Pseudomonas aeruginosa [27]) of the same compound?
Its MIC is 0.25 µg/mL (≈ 0.677 µM).
